Values quoted from earlier work as cited in paper PMC7731283, “Synthesis and Biological Evaluation of Halogenated E-Stilbenols as Promising Antiaging Agents” (Molecules, 2020).

Set-up: method as in PMID 29315886, PMID 15779070
Settings: compared with RSV; cited from earlier work

## COc1cc(/C=C/c2ccc(O)cc2)cc(OC)c1 [pterostilbene]
  metabolic stability: more metabolically stable
